Data published in publication PMC10702411 (Nature structural & molecular biology, 2023).

Legend:
[1] = system: TCM; assay: apoptosis / cell death read-outs, uninfected TCM; assay type: cell-based, human; settings: LCL161, 4 h
[2] = system: BIRC2 and BIRC3 in HIV-TCM; assay: western blot of BIRC2 and BIRC3, HIV-TCM; assay type: cell-based, human; settings: 100 nM LCL161, 4 h, n = 4
[3] = system: mouse embryonic fibroblasts (MEFs); assay: MTT survival assay, MEF; assay type: cell-based; settings: LCL161 and/or TNF, 24 h, three independent biological replicates
[4] = system: caspase-3 and PARP1 in HIV-TCM; assay: western blot of caspase-3 and PARP1, HIV-TCM; assay type: cell-based, human; settings: 100 nM LCL161, 4 h, n = 4
[5] = system: HIV-TCM; assay: LDH release assay, HIV-TCM; assay type: cell-based, human; settings: LCL161, 4 h, n = 4
[6] = system: HIV-TCM; assay: HIV-1 p24 antigen release; assay type: cell-based; settings: Supplementary Fig. 7c,d
[7] = system: cancer cells; settings: cited from earlier work
[8] = system: human glioma LN18 cells; assay: MTT survival assay, LN18; assay type: cell-based; settings: LCL161 and/or TNF, 24 h, three independent biological replicates
[9] = system: RIPK1; assay: RIPK1 ubiquitination and Ser166 phosphorylation; assay type: cell-based, human; settings: 100 nM LCL161, 5 min (ubiquitination) or 4 h; n = 4
[10] = system: FAS DISC in TCM; assay: FAS DISC coimmunoprecipitation, TCM; assay type: cell-based, human; settings: 100 nM LCL161, 4 h, co-IP, n = 4
[11] = system: HIV-TCM; assay: annexin V / propidium iodide flow cytometry, HIV-TCM; assay type: cell-based, human; settings: LCL161, Supplementary Fig. 8
[12] = system: HIV-TCM; assay: Cell Death Detection ELISA, HIV-TCM; assay type: cell-based, human; settings: LCL161, 4 h, n = 4
[13] = system: BIRC2 and BIRC3 in TCM; assay: western blot of BIRC2 and BIRC3, uninfected TCM; assay type: cell-based, human; settings: uninfected cells (TCM), 100 nM LCL161, 4 h; n = 4
[14] = cited from earlier work
[15] = system: IFNγ stimulated ex vivo differentiated monocyte-derived macrophages; assay: cytokine antibody array, macrophages; assay type: cell-based, human; settings: 10 μM embelin, IFNγ 24 h, supernatants; array in duplicate
[16] = molecular target: BIRC2BIR3 (Homo sapiens, UniProt Q13490); assay: X-ray crystal structure of BIRC2BIR3 complex; assay type: binding; settings: Supplementary Fig. 2
Sequence of BIRC2BIR3 (Q13490 261-346): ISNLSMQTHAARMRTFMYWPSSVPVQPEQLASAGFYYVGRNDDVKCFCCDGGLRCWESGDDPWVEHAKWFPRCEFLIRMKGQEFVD

[17] = system: BIRC2_3BIR D234A/D320A; assay: pulldown, BIRC2_3BIR D234A/D320A; assay type: binding, human; settings: D234A/D320A concurrently, performed twice
[18] = system: D320A and E325A mutants of BIRC2BIR3; assay: NMR and pulldown, BIRC2BIR3 D320A and E325A mutants; assay type: binding, human; settings: NMR and pulldown (performed twice)
[19] = system: D234A and E239A mutants of BIRC2BIR2; assay: NMR and pulldown, BIRC2BIR2 D234A and E239A mutants; assay type: binding, human; settings: NMR and pulldown (performed twice)

## CN[C@@H](C)C(=O)N[C@H](C(=O)N1CCC[C@H]1c1nc(C(=O)c2ccc(F)cc2)cs1)C1CCCCC1 [LCL161]
[1]
  apoptosis / LDH release in uninfected cells: not in the uninfected cells
[2]
  degradation of BIRC2 and BIRC3: induced the rapid degradation of BIRC2 and BIRC3
[3]
  sensitization to killing by TNF: sensitized mouse embryonic fibroblasts (MEFs) and human glioma LN18 cells to killing by TNF
[4]
  caspase-3 cleavage: cleavage of caspase-3
[5]
  LDH release: increase in lactate dehydrogenase (LDH) release
[6]
  HIV-1 p24 antigen release: not accompanied by an increase in HIV-1 p24 antigen release
[7]; at least two dozen tumor types
  anticancer activity: potent anticancer activity in at least two dozen tumor types
[7]; with cisplatin and vincristine
  sensitization of cancer cells to chemotherapy: sensitizes cancer cells to conventional chemotherapy with cisplatin and vincristine
[8]
  sensitization to killing by TNF: sensitized mouse embryonic fibroblasts (MEFs) and human glioma LN18 cells to killing by TNF
[9]
  RIPK1 deubiquitination, phosphorylation and activation: deubiquitination and Ser166 phosphorylation and thus activation of RIPK1
[10]
  association of FADD, cFLIPS and Ser166 phosphorylated RIPK1 with FAS: did not associate with FAS
[11]
  phosphatidylserine translocation: translocation of phosphatidylserine from the inner to the outer leaflet
  plasma membrane permeabilization: permeabilization of the plasma membrane
[12]
  cytoplasmic histone-associated DNA fragments: increase in cytoplasmic histone-associated DNA fragments
[13]
  degradation of BIRC2 and BIRC3: induced the rapid degradation of BIRC2 and BIRC3
[14]; among SMAC mimetic compounds
  antiproliferation and bioavailability properties: one of the most promising antiproliferation and bioavailability properties
[14]
  pharmacological properties: favorable pharmacological properties
  toxicity: minor toxicity

## CCCCCCCCCCCC1=C(O)C(=O)C=C(O)C1=O [embelin]
[15]
  interleukin-6 (IL-6) level: increase of interleukin-6 (IL-6)

## ATPF [caspase-9]
[16]
  binding site in overlay of structures: occupy the same binding site of BIRC2BIR3

## AVPI [SMAC]
[16]
  binding site in overlay of structures: occupy the same binding site of BIRC2BIR3

## H3: N terminus of H3 (residues 1–22 of H3), histone peptide in pulldowns
[17]
  binding to double mutant of triple BIR: disrupt binding
[18]
  binding to mutant domain: abrogated binding
[19]
  binding to mutant domain: abrogated binding

## H3T3ph: H3 peptide with phosphorylation of Thr3
[18]
  binding to mutant domain: abrogated binding
[19]
  binding to mutant domain: abrogated binding
